tested on: HCV 1b genotype; assay: HCV Replicon assay (HCV-neo replicon cells, wild-type); assay type: cell-based; details: HCV 1b genotype replicon; class symbols
How it was run: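 Assay used wild-type HCV genotype 1b replicon cells carrying neo, with luciferase reporter read-outs in some formats.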

Q: Which EC50 does the source give for `COC(=O)NC(C(=O)N1[C@@H]2C[C@@H]2C[C@H]1c1nc2cc(-c3ccc(Oc4cccc5[nH]c([C@@H]6C[C@H]7C[C@H]7N6C(=O)C(NC(=O)OC)c6ccccc6)nc45)cc3)ccc2[nH]1)c1ccccc1` (stereo partly drawn) [Example V10, methyl (2-((1R,3S,5R)-3-(5-(4-((2-((1R,3S,5R)-2-(((methoxycarbonyl)amino)(phenyl)acetyl)-2-azabicyclo[3.1.0]hex-3-yl)-1H-benzimidazol-4-yl)oxy)phenyl)-1H-benzimidazol-2-yl)-2-azabicyclo[3.1.0]hex-2-yl)-2-oxo-1-phenylethyl) carbamate] here?
A: < 4.57 nM

Q: For `O=C1CC[C@@H](c2nc3cc(CCc4ccc5nc([C@@H]6CCC(=O)N6C(=O)OCc6ccccc6)[nH]c5c4)ccc3[nH]2)N1C(=O)OCc1ccccc1` [OL3, benzyl (2S)-2-(5-(2-(2-((2S)-1-(((benzyloxy)carbonyl)-5-oxo-2-pyrrolidinyl)-1H-benzimidazol-6-yl)ethyl)-1H-benzimidazol-2-yl)-5-oxo-1-pyrrolidinecarboxylate], which EC50 is on record?
A: 100 to 999 nM

Q: With `CSCC[C@H](NC(=O)OCc1ccccc1)c1nc2cc(CCc3ccc4nc([C@H](CCSC)NC(=O)OCc5ccccc5)[nH]c4c3)ccc2[nH]1` [OL4, benzyl ((1S)-1-(5-(2-(2-((1S)-1-(((benzyloxy)carbonyl)amino)-3-(methylsulfanyl)propyl)-1H-benzimidazol-6-yl)ethyl)-1H-benzimidazol-2-yl)-3-(methylsulfanyl)propyl) carbamate] as the molecule, how does the EC50 read?
A: 4.57 to 99 nM

Q: For `C[C@@H](NC(=O)OCc1ccccc1)c1nc2cc(CCc3ccc4nc([C@@H](C)NC(=O)OCc5ccccc5)[nH]c4c3)ccc2[nH]1` [OL6, benzyl ((1R)-1-(5-(2-(2-(1R)-1-(((benzyloxy)carbonyl)amino)ethyl-1H-benzimidazol-6-yl)ethyl)-1H-benzimidazol-2-yl)ethyl)carbamate], which EC50 is on record?
A: 100 to 999 nM

same assay, conditions: Hepatitis C virus, HCV 1b genotype replicon; class symbols

Q: With `COC(=O)N[C@H](C(=O)N1CCC[C@H]1c1nc2cc(-c3ccc(Oc4cccc5[nH]c([C@@H]6CCCN6C(=O)[C@@H](NC(=O)OC)C(C)C)nc45)cc3)ccc2[nH]1)C(C)C` [Example V11, Methyl((1S)-1-(((2S)-2-(4-(4-(2-((2S)-1-((2S)-2-((methoxycarbonyl)amino)-3-methylbutanoyl)-2-pyrrolidinyl)-1H-benzimidazol-5-yl)phenoxy)-1H-benzimidazol-2-yl)-1-pyrrolidinyl)carbonyl)-2-methylpropyl)carbamate] as the molecule, how does the EC50 read?
A: < 4.57 nM

Q: With `COC(=O)N[C@H](C(=O)N1CCC[C@H]1c1nc2cc(Oc3ccc(-c4ccc5[nH]c([C@@H]6CCCN6C(=O)[C@@H](NC(=O)OC)C(C)C)nc5c4)cc3)ccc2[nH]1)C(C)C` [Example V12, Methyl((1S)-1-(((2S)-2-(5-(4-(2-((2S)-1-((2S)-2-((methoxycarbonyl)amino)-3-methylbutanoyl)-2-pyrrolidinyl)-1H-benzimidazol-5-yl)phenoxy)-1H-benzimidazol-2-yl)-1-pyrrolidinyl)carbonyl)-2-methylpropyl)carbamate] as the molecule, how does the EC50 read?
A: < 4.57 nM

Q: How did the EC50 turn out when `C[C@](O)(C(=O)N1CCC[C@H]1c1nc2ccc(-c3ccc(-c4ccc5nc([C@@H]6CCCN6C(=O)[C@](C)(O)c6ccccc6)[nH]c5c4)o3)cc2[nH]1)c1ccccc1` [JG1, (2R,2′R)-1,1′-(2,5-furandiylbis(1H-benzimidazole-5,2-diyl(2S)-2,1-pyrrolidinediyl))bis(1-oxo-2-phenyl-2-propanol)] was run?
A: 4.57 to 99 nM

Q: How did the EC50 turn out when `O=C([C@H](O)c1ccccc1)N1CCC[C@H]1c1nc2cc(-c3ccc(-c4ccc5[nH]c([C@@H]6CCCN6C(=O)[C@H](O)c6ccccc6)nc5c4)o3)ccc2[nH]1` [JG2, (1R,1′R)-2,2′-(2,5-furandiylbis(1H-benzimidazole-5,2-diyl(2S)-2,1-pyrrolidinediyl))bis(2-oxo-1-phenylethanol)] was run?
A: < 4.57 nM

Q: `O=C([C@@H](O)c1ccccc1)N1CCC[C@H]1c1nc2cc(-c3ccc(-c4ccc5[nH]c([C@@H]6CCCN6C(=O)[C@@H](O)c6ccccc6)nc5c4)o3)ccc2[nH]1` [JG3, (1S,1′S)-2,2′-(2,5-furandiylbis(1H-benzimidazole-5,2-diyl(2S)-2,1-pyrrolidinediyl))bis(2-oxo-1-phenylethanol)] was tested. Which EC50 did it give?
A: 4.57 to 99 nM

Q: With `CN(C)[C@@H](C(=O)N1CCC[C@H]1c1nc2cc(-c3ccc(-c4ccc5nc([C@@H]6CCCN6C(=O)[C@@H](c6ccccc6)N(C)C)[nH]c5c4)o3)ccc2[nH]1)c1ccccc1` [JG4, (1R)-2-((2S)-2-(5-(5-(2-((2S)-1-((2R)-2-(dimethylamino)-2-phenylacetyl)-2-pyrrolidinyl)-1H-benzimidazol-6-yl)-2-furyl)-1H-benzimidazol-2-yl)-1-pyrrolidinyl)-N,N-dimethyl-2-oxo-1-phenylethanamine] as the molecule, how does the EC50 read?
A: < 4.57 nM

Q: How did the EC50 turn out when `C[C@H](NC(=O)OCc1ccccc1)c1nc2cc(CCc3ccc4[nH]c([C@H](C)NC(=O)OCc5ccccc5)nc4c3)ccc2[nH]1` [OL1, benzyl((1S)-1-(5-(2-(2-((1)-1-(((benzyloxy)carbonyl)amino)ethyl)-1H-benzimidazol-6-yl)ethyl)-1H-benzimidazol-2-yl)ethyl)carbamate] was run?
A: 4.57 to 99 nM

Q: Which EC50 does the source give for `CC(C)(C)O[C@@H]1C[C@@H](c2nc3cc(CCc4ccc5nc([C@@H]6C[C@@H](OC(C)(C)C)CN6C(=O)OCc6ccccc6)[nH]c5c4)ccc3[nH]2)N(C(=O)OCc2ccccc2)C1` [OL5, benzyl (2S,4R)-2-(5-(2-(2-((2S,4R)-1-((benzyloxy)carbonyl)-4-tert-butoxy-2-pyrrolidinyl)-1H-benzimidazol-6-yl)ethyl)-1H-benzimidazol-2-yl)-4-tert-butoxy-1-pyrrolidinecarboxylate] here?
A: 100 to 999 nM

Q: How did the EC50 turn out when `CC[C@H](NC(=O)OCc1ccccc1)c1nc2cc(CCc3ccc4nc([C@H](CC)NC(=O)OCc5ccccc5)[nH]c4c3)ccc2[nH]1` [OL7, benzyl ((1S)-1-(5-(2-(2-((1S)-1-(((benzyloxy)carbonyl)amino)propyl)-1H-benzimidazol-6-yl)ethyl)-1H-benzimidazol-2-yl)propyl)carbamate] was run?
A: 4.57 to 99 nM

Q: Which EC50 does the source give for `CC(C)(C)OC(=O)C[C@H](NC(=O)OCc1ccccc1)c1nc2cc(CCc3ccc4nc([C@H](CC(=O)OC(C)(C)C)NC(=O)OCc5ccccc5)[nH]c4c3)ccc2[nH]1` [OL9, tert-butyl (3S)-3-(((benzyloxy)carbonyl)amino)-3-(5-(2-(2-((1S)-1-(((benzyloxy)carbonyl)amino)-3-tert-butoxy-3-oxopropyl)-1H-benzimidazol-6-yl)ethyl)-1H-benzimidazol-2-yl)propanoate] here?
A: 4.57 to 99 nM

Q: With `CC(C)(C)OC(=O)CC[C@H](NC(=O)OCc1ccccc1)c1nc2cc(CCc3ccc4nc([C@H](CCC(=O)OC(C)(C)C)NC(=O)OCc5ccccc5)[nH]c4c3)ccc2[nH]1` [OL10, tert-butyl (4S)-4-(((benzyloxy)carbonyl)amino)-4-(5-(2-(2-((1S)-1-(((benzyloxy)carbonyl)amino)-4-tert-butoxy-4-oxobutyl)-1H-benzimidazol-6-yl)ethyl)-1H-benzimidazol-2-yl)butanoate] as the molecule, how does the EC50 read?
A: 100 to 999 nM

Q: How did the EC50 turn out when `O=C(C1CC1)N1CCN(C(=O)OCc2ccccc2)C(c2nc3cc(CCc4ccc5nc(C6CN(C(=O)C7CC7)CCN6C(=O)OCc6ccccc6)[nH]c5c4)ccc3[nH]2)C1` (stereo not drawn) [OL12, benzyl 2-(5-(2-(2-(1-((benzyloxy)carbonyl)-4-(cyclopropylcarbonyl)-2-piperazinyl)-1H-benzimidazol-6-yl)ethyl)-1H-benzimidazol-2-yl)-4-(cyclopropylcarbonyl)-1-piperazinecarboxylate] was run?
A: 100 to 999 nM

Q: For `CN(C)C(=O)C[C@H](NC(=O)OCc1ccccc1)c1nc2cc(CCc3ccc4[nH]c([C@H](CC(=O)N(C)C)NC(=O)OCc5ccccc5)nc4c3)ccc2[nH]1` [OL14, benzyl((1S)-1-(5-(2-(2-((1S)-1-(((benzyloxy)carbonyl)amino)-3-(dimethylamino)-3-oxopropyl)-1H-benzimidazol-6-yl)ethyl)-1H-benzimidazol-2-yl)-3-(dimethylamino)-3-oxopropyl)carbamate], which EC50 is on record?
A: 100 to 999 nM

Q: How did the EC50 turn out when `C[C@H](NC(=O)[C@H]1CCCO1)c1nc2cc(CCc3ccc4[nH]c([C@H](C)NC(=O)[C@H]5CCCO5)nc4c3)ccc2[nH]1` [OL15, (2R,2′R)—N,N′-(1,2-ethanediylbis(1H-benzimidazole-5,2-diyl(1S)-1,1-ethanediyl))ditetrahydro-2-furancarboxamide] was run?
A: 100 to 999 nM

same assay, conditions: Hepatitis C virus, HCV 1b genotype replicon; numeric values

Q: For `CC(C)(C)OC[C@H](NC(=O)OCc1ccccc1)c1nc2cc(CCc3ccc4nc([C@H](COC(C)(C)C)NC(=O)OCc5ccccc5)[nH]c4c3)ccc2[nH]1` [OL2, benzyl ((1R)-1-(5-(2-(2-((1R)-1-(((benzyloxy)carbonyl)amino)-2-tert-butoxyethyl)-1H-benzimidazol-6-yl)ethyl)-1H-benzimidazol-2-yl)-2-tert-butoxyethyl)carbamate], which EC50 is on record?
A: 20 nM

Q: Which EC50 does the source give for `CC(C)(C)OC(=O)N1CCN(C(=O)OCc2ccccc2)C(c2nc3cc(CCc4ccc5nc(C6CN(C(=O)OC(C)(C)C)CCN6C(=O)OCc6ccccc6)[nH]c5c4)ccc3[nH]2)C1` (stereo not drawn) [OL8, 1-benzyl 4-tert-butyl 2-(5-(2-(2-(1-((benzyloxy)carbonyl)-4-(tert-butoxycarbonyl)-2-piperazinyl)-1H-benzimidazol-6-yl)ethyl)-1H-benzimidazol-2-yl)-1,4-piperazinedicarboxylate] here?
A: 2880 nM

Q: With `O=C(c1ccncc1)N1CCN(C(=O)OCc2ccccc2)C(c2nc3cc(CCc4ccc5nc(C6CN(C(=O)c7ccncc7)CCN6C(=O)OCc6ccccc6)[nH]c5c4)ccc3[nH]2)C1` (stereo not drawn) [OL13, benzyl 2-(5-(2-(2-(1-((benzyloxy)carbonyl)-4-isonicotinoyl-2-piperazinyl)-1H-benzimidazol-6-yl)ethyl)-1H-benzimidazol-2-yl)-4-isonicotinoyl-1-piperazinecarboxylate] as the molecule, how does the EC50 read?
A: 8560 nM

From US7906655B2, “Hepatitis C virus inhibitors” (Bristol-Myers Squibb Company, priority 2008, dated 2011)
